Results as given in patent US20090169472A1, “METHODS AND COMPOSITIONS FOR TREATING IMMUNE DISORDERS” (CANCER RESEARCH TECHNOLOGY LTD., priority 2005, published 2009).
Oligonucleotides are written 5' to 3', each unit as a sugar letter and its base; * is a phosphorothioate linkage, no mark a phosphodiester; rarer units and linkages stand in square brackets, end groups in braces. Plain capitals give the bases only. r = 2'-OH (RNA)

How the values were obtained:
[1] = tested on: Flt3L-DC; assay: Flt3L-DC activation assay (cytokines in supernatant by sandwich ELISA); assay type: cell-based, mouse
Method: Flt3L-DC were generated from bone marrow cell suspensions in RPMI 1640 medium containing 10% fetal calf serum, 2 mM glutamine, 100 units/ml penicillin, 100 μg/ml streptomycin, 50 μM 2-mercaptoethanol and 50 ng/ml murine Flt3L (R&D systems) and were used at day 10 or 11 of cultures.
For stimulation with oligonucleotides, 2×10^5 Flt3L-DC were seeded in triplicate in 96-well-plates. Oligonucleotides were added and cells were cultured overnight in a final volume of 200 μl. Controls contained medium alone, 0.5 μg/ml CpG 1668, 100 mM loxoribine or 1 μM R848.
For stimulation with oligonucleotides other than CpG 1668, different doses of each test oligonucleotides were diluted in 150 mM NaCl solution and mixed with an equal volume of 150 mM NaCl solution+/−polytheylenimine (PEI; 3 μl/ml PEI were used irrespective of the RNA dose). After 15 min incubation at room temperature, oligonucleotide/PEI complexes were added to cells. Supernatants were collected after 18-20 hr of culture and levels of IFNα, IL-6 and IL-12 p40 were determined by sandwich ELISA.

[2] = tested on: human plasmacytoid DC (pDC); assay: Human pDC activation assay (IFNα and IL-6 in supernatant by sandwich ELISA); assay type: cell-based; conditions: for IFN-α production by human pDC: different doses of polyUs 21-mer, polyAs 21-mer 1 μM, overnight culture
Method: Human pDC activation assays. R848 and RNA9.2DR complexed to LyoVec were from Invivogen. RNA oligonucleotides were purchased from Sigma Proligo. Human PMBCs were purified from normal human peripheral blood by Ficoll-Hypaque centrifugation. BDCA4^+ plasmacytoid DC were purified from total PBMC by positive selection using CD304^+ Microbeads and MiniMacs from MiltenyiBiotec. Oligonucleotides/PEI complexes, prepared as described above, were added to 1-2×10^5 pDC seeded in duplicate in 96-well-plates. Cells were cultured overnight in a final volume of 200 μl, supernatants were collected after 18-20 hr of culture and levels of IFNα and IL-6 were determined by sandwich ELISA.

[3] = oligonucleotide/PEI complexes, C57BL/6 Flt3L-DC, overnight culture, result in words
[4] = polyUs 21-mer 10 μM as PEI complexes, RNA9.2DR 1 μM as LyoVec complexes, R848 1 μM

polyUs-21: polyU RNA 21-mer, phosphorothioate bonds, SEQ ID NO 5 (rU*rU*rU*rU*rU*rU*rU*rU*rU*rU*rU*rU*rU*rU*rU*rU*rU*rU*rU*rU*rU)
potency in inducing IFNα compared with RNA40 ([1]; PEI complexes): much more potent than RNA40
IFNα levels, RNA oligonucleotide polyUs-21 compared with DNA oligonucleotide polydUs-21 ([1]; PEI complexes, all doses tested): induced higher levels of IFNα at all doses tested
IFNα induction by Flt3L-DC ([1]; free oligonucleotide given to culture without PEI): induced IFNα
fold more potent in inducing IFNα by Flt3L-DC than R848 and loxoribine ([1]; ligands at concentrations of maximum cytokine induction: polyUs-21 1 μg/ml + PEI, CpG 1668 0.5 μg/ml, loxoribine 100 mM, R848 10 μg/ml): approximately 30 times
optimal dose of ssRNA for IFNα induction ([1]; mouse Flt3L, PEI complexes): 3 µg/mL
IFNα induction by Flt3L-DC [1, 3]: induced IFNα by Flt3L-DC in a dose dependent manner
ability to stimulate TLR7 ([1]; summary statement on oligonucleotides of Table 1): capable of stimulating TLR7
IFN-α production by human pDC ([2]; PEI complexes): induced IFN-α production by human pDC in a dose-dependent manner
optimal dose of ssRNA for IFN-α induction ([2]; human pDC, PEI complexes): 3 µg/mL
IFNα production by human pDC, comparison of TLR7/8 agonists [2, 4]: induced equivalent levels of IFNα production by human pDC
IL-6 induction by human pDC [2, 4]: failed to induce IL-6 secretion by pDC

polyAs-21: polyA RNA 21-mer, phosphorothioate bonds, SEQ ID NO 26 (rA*rA*rA*rA*rA*rA*rA*rA*rA*rA*rA*rA*rA*rA*rA*rA*rA*rA*rA*rA*rA)
IFNα induction by Flt3L-DC [1, 3]: failed to induce IFNα
IFN-α production by human pDC ([2]; PEI complexes): failed to induce IFNα
